For data set [1], the system named is GNE551-evoked nocifensive behavior. The data set is described as follows: Inhibition of GNE551-evoked nocifensive behavior, PK/PD. Type of data set: in vivo, rat.
The test system of data set [2] is AITC-evoked nocifensive behavior. Description: Inhibition of AITC-evoked nocifensive behavior, PK/PD. In kind it is in vivo, rat. The note with it: 30 mg/kg dosing.
A short description of data set [3]: Rat pharmacokinetics after oral gavage. Type of data set: in vivo.

`Cn1cnc2ncn(Cc3nc(CCc4ccc(Cl)cc4)no3)c(=O)c21` [AMG0902]: in data set [1] (30 mg/kg), the “block of GNE551-induced response” value came to 38%. The “latency to GNE551-induced nocifensive behavior” value in data set [1] (increasing oral doses of antagonist) was “lengthened the latency”. Moreover, the “block of AITC-induced response” value in data set [2] came out at 86%. For the same compound, in data set [3], the “Tmax (time point of maximal plasma concentration)” value came out at 1 h.

The record behind these values is article PMC8244166 (Neuron, 2020).
